# From PMC6832649, “Sa12b Peptide from Solitary Wasp Inhibits ASIC Currents in Rat Dorsal Root Ganglion Neurons” (Toxins, 2019)
# Entries after “also recorded” stand apart in the source; their conditions may differ. Where no end group is shown, it is not given here.
# Columns and labels:
# [1] = pH not stated for this peptide; ref [37]; cited from earlier work
# Source text: RFa-related peptides have an NH2 group which is positively charged at pH 5 to 8 [21]. The effects of Sh5b could be due to the positive charge given by its amine group. Other inhibitors of ASICs, such as the PhcrTx1 peptide, which at pH 7.4 has a net charge of +5.03, APETx2 (net charge = +2.00), and PcTx1 (net charge = +3) also have that particularity. Aminoglycosides are also positively-charged ASICs modulators.
# rASIC3 = test system: rASIC3; parameters: method as in PMID 15044953; conditions: ref [34]; read-out: IC50, homomeric rASIC3; cited from earlier work
# hASIC3 = test system: hASIC3; parameters: method as in PMID 15044953; conditions: ref [34]; cited from earlier work
# [2] = test system: ASIC currents in rat dorsal root ganglion (DRG) neurons; assay: ASIC currents in DRG neurons, whole-cell voltage clamp; type: cell-based, Long-Evans CII rat (P7-P10)
# Protocol: To study the effect of Sa12b and Sh5b on ASIC, DRG neurons were obtained from Long-Evans CII / ZV rats of 7 to 10 days of postnatal age, of either sex. Animals were provided by the laboratory animal facility ‘Claude Bernard’ of the Autonomous University of Puebla. The study was performed in accordance with the recommendations in the Guiding Principles in the Care and Use of Vertebrate Animals in Research and Training of the American Physiological Society, and with the regulations of the NOM-062-ZOO-1999 of the Mexican Ministry of Agriculture, Stockbreeding, Rural Development, Fishing and Food. The protocol was reviewed and approved by the Institutional Committee for Animal Care and Use (IACUC) of the Autonomous University of Puebla (VIEP-BUAP) on 17 July 2017. The ethical approval code is SOEE-UALVIEP-17-1. All efforts were made to minimize animal suffering and to reduce the number of animals used. DRG neurons were isolated and maintained in primary culture according to the methodology described previously. The dissection and cell culture were performed within a level I biosafety laminar flow hood (Nuaire, Plymouth, MN, USA). Rats were anesthetized with sevoflurane and sacrificed by decapitation. Subsequently, the rat was placed in prone position to make a longitudinal incision through the vertebral bodies removing the spinal cord. Dorsal root ganglia were isolated (approximately 12 to 18 per rat) using conventional dissection under a stereoscopic microscope (American Optical, Southbridge, MA, USA). Once extracted, DRG neurons were placed in a disposable sterile centrifuge tube (Corning, Corning, NY, USA), in which they were incubated for 30 min at 37 °C in Leibovitz L15 medium (L15) (Invitrogen, Waltham, MA, USA), added with 1.25 mg/mL of trypsin and 1.25 mg/mL of collagenase (both from Sigma-Aldrich, St. Louis, MO, USA) for an enzymatic dissociation.
# After the enzymatic treatment, the ganglia were washed 3 times with 100% L15 medium; after each wash, the cells were subjected to mechanical dissociation using glass three-gauge Pasteur pipettes; between each wash, a cell pellet was formed using a centrifuge at 5000 rpm. After the third wash, once the cell pellet was formed, the supernatant was discarded, and the cell suspension was placed in a 35 mm culture dish (Corning) on 12 × 10 mm glass plates (Corning) previously treated with poly-D-lysine (Sigma-Aldrich, St. Louis, MO, USA).
# Dissociated neurons were incubated for a period of time ranging from 2 to 8 h in a humidified atmosphere ([…], 5% CO2, at 37 °C) using a water-jacketed CO2 incubator (Nuaire, Plymouth, MN, USA) allowing for settlement and adhesion of isolated cells to the glass plates. The cells were cultured in modified L15 medium, supplemented with 10% fetal bovine serum (Gibco, Waltham, MA, USA), 100 IU penicillin (Lakeside, Hayward, CA USA), fungizone 2.5 μL/mL (Gibco), NaHCO3 15.7 mM (J.T. Baker, Radnor DE, USA) and 15.8 mM HEPES (Sigma-Aldrich, St. Louis, MO, USA).
# After an incubation period of 2 to 8 h, the recording of ASIC currents in DRG neurons was performed. Cells were transferred to a recording chamber mounted in a phase-contrast inverted microscope (TMS, Nikon Co. Tokyo, Japan).
# The recording chamber was constantly perfused with extracellular solution (Table 3). Recordings were performed in whole-cell voltage-clamp mode using an Axopatch 1D amplifier (Molecular Devices, Union City, CA, USA). Data collection and generation of commands for the perfusion change were carried out by the pClamp 9.2 (Molecular Devices) software in a 16-bit data acquisition system (Digidata 1320, Molecular Devices). […] The signals were digitized at 5 kHz. The series resistance was electronically compensated at 80%. Throughout the recording, access resistance and seal quality were monitored to ensure stable recording conditions.
# Proton-gated currents were obtained with a holding potential of −60 mV. […]
# ASIC1b = conditions: ref [9]; read-out: EC50, agonist of ASIC1b; cited from earlier work
# ASIC1a = conditions: ref [38]; cited from earlier work
# ASIC currents = conditions: 10 μM stated to be close to the EC50 of FMRFa; no reference given; cited from earlier work
# Protocol: The peptide was initially tested at 10 μM, this concentration was used because it is close to the EC50 of FMRFa. With application of 10 µM Sa12b in preincubation form (20 s before and 5 s during acid pulse), Sa12b inhibited ASIC currents 92.7 ± 7.3% (p < 0.05 paired Student’s t-test, n = 5) (Figure 2A).
# [3] = target: Acid-Sensing Ion Channels (ASIC) of rat dorsal root ganglion neurons
# [4] = target: Acid-Sensing Ion Channels (ASIC) of rat dorsal root ganglion neurons; remark: listed apart in the source
# [5] = Sh5b 100 nM, co-application, mean ± E.S., n = 5
# [6] = Sh5b 100 nM, preincubation, mean ± E.S., n = 9
# [7] = Sh5b 100 nM, preincubation, single recording, Figure 6A
# [8] = Sh5b 1 µM, preincubation, single recording, Figure 6B
# [9] = Sh5b 3 µM, co-application, single recording, Figure 5A
# [10] = Sh5b 10 µM, co-application, mean ± E.S., n = 9
# [11] = Sh5b 10 µM, co-application, single recording, Figure 5B
# [12] = Sh5b 10 µM, preincubation, mean ± E.S., n = 12
# [13] = Sh5b 10 µM, preincubation, single recording, Figure 6C
# [14] = Sh5b 30 µM, co-application, mean ± E.S., n = 6
# [15] = Sh5b 30 µM, co-application, single recording, Figure 5C
molecule,measurement,setting,value
APETx2,net charge,[1],+2.00
same,IC50,rASIC3,37 to 63 nM
same,IC50,hASIC3,~175 nM
DVDHVFLRF-NH2 [Sh5b],effect on analyzed parameters of ASIC current,"[2]; Sh5b 100 nM, co-application, n = 5",no consistent concentration-dependent effects
same,% ISS change (increase 🡹),[2]; [5],🡹 85 ± 74%
same,% Ipeak change (decrease 🡻),[2]; [5],🡻2 ± 4%
same,% Ƭdes change (decrease 🡻),[2]; [5],🡻 1 ± 2%
same,effect on analyzed parameters,"[2]; Sh5b 100 nM, preincubation, n = 9",no effect
same,% ISS change (increase 🡹),[2]; [6],🡹 53 ± 38%
same,% Ipeak change (decrease 🡻),[2]; [6],🡻0.5 ± 6%
same,% Ƭdes change (increase 🡹),[2]; [6],🡹 13 ± 15%
same,change in Ƭdes,[2]; [7],no change
same,increase of ISS,[2]; [7],3%
same,increase of Ipeak,[2]; [7],1%
same,% Ƭdes change (increase 🡹),"[2]; Sh5b 1 µM, preincubation, mean ± E.S., n = 5",🡹 3 ± 5%
same,inhibition of ISS,[2]; [8],5%
same,inhibition of Ipeak,[2]; [8],1%
same,% Ipeak change (decrease 🡻),"[2]; Sh5b 3 µM, co-application, mean ± E.S., n = 12",🡻6 ± 3%
same,increase of ISS,[2]; [9],30%
same,reduction of Ipeak,[2]; [9],9.6%
same,overall change of Ipeak,"[2]; Sh5b 10 µM, co-application, increase in some cells, decrease in others",non-significant
same,% ISS change (increase 🡹),[2]; [10],🡹 1 ± 11%
same,% Ƭdes change (decrease 🡻),[2]; [10],🡻 10 ± 5%
same,% Ipeak change (increase 🡹),"[2]; Sh5b 10 µM, co-application, mean ± E.S., n = 9, non-significant",🡹17 ± 15%
same,increase of ISS,[2]; [11],14.6%
same,increase of Ipeak,[2]; [11],44.6%
same,effect on studied parameters,"[2]; Sh5b 10 µM, preincubation, n = 12",did not produced significant effects
same,% ISS change (decrease 🡻),[2]; [12],🡻 8 ± 15%
same,% Ipeak change (decrease 🡻),[2]; [12],🡻11 ± 4%
same,% Ƭdes change (decrease 🡻),[2]; [12],🡻 5 ± 4%
same,change in Ƭdes,[2]; [13],no change
same,increase of ISS,[2]; [13],26%
same,inhibition of Ipeak,[2]; [13],18%
same,ISS amplitude,"[2]; Sh5b 30 µM, co-application, from 79 pA before peptide, single recording, Figure 5C",159 pA
same,% Ipeak change (decrease 🡻),[2]; [14],🡻1 ± 6%
same,% Ƭdes change (increase 🡹),[2]; [14],🡹 9 ± 5%
same,increase of ISS,[2]; [15],102%
same,inhibition of Ipeak,[2]; [15],3.8%
same,overall effect on ASIC currents,"[2]; Sh5b, both application protocols","did not show consistent results having both excitatory and inhibitory effects on the maximum ASIC currents; also recorded: did not produce consistent, reproducible, effects"
same,concentration dependence of effects on ASIC current,"[2]; Sh5b, co-application, 100 nM-30 µM",not dependent on concentration
same,effect on ISS/Ipeak relationship,"[2]; Sh5b, co-application, overall",tendency towards the increase
same,effect on Ƭdes,"[2]; Sh5b, co-application, overall",did not show noticeable differences
same,effect on ISS component,"[2]; Sh5b, overall, preincubation",increased slightly
same,effect on ISS/Ipeak relationship,"[2]; Sh5b, preincubation, overall",also increased
same,effect on current peak,"[2]; Sh5b, preincubation, overall",tendency to inhibit the current peak
same,effect on Ƭdes and integral of the current,"[2]; Sh5b, preincubation, overall",no consistent changes
same,reversibility of effect on ASIC current,[2]; after 1 min washout,reversed by 1 min peptide washout
PcTx1,net charge,[1],+3
same,EC50,ASIC1b,~100 nM
same,IC50,ASIC1a,1 nM
"Phe-Met-Arg-Phe amide [FMRFa, abundant tetrapeptide in invertebrate nervous systems, neurotransmitter and neuromodulator]",EC50,ASIC currents,~10000 nM
Sa12b peptide,"percent decrease of the ASIC I peak at pH 6.1, Sa12b by preincubation, 30 nM to 10 µM (highest at 1 µM), whole-cell voltage clamp of rat DRG neurons",[3],98 % I_(peak)
DVDHVFLRF-NH2 [Sh5b peptide],"percent decrease of the ASIC I peak at pH 6.1, Sh5b by preincubation, 100 nM to 10 µM (largest at 10 µM; not significant), whole-cell voltage clamp of rat DRG neurons",[4],11 % I_(peak)
